Test results reported in patent US20080096848A1, “Substituted N-Aryl-9-Oxo-9H-Fluorene-1-Carboxamides and Analogs as Activators of Caspases and Inducers of Apoptosis” (CYTOVIA INC., priority 2004, published 2008).
Like-named read-outs stand apart in the source and are kept apart here.

Legend:
[1] = system: T-47D; assay: Caspase cascade activation assay (Ac-DEVD-R110 fluorogenic substrate) in T-47D cells; type: cell-based, Human; details: 24 h incubation; for Caspase activity (Ratio): ratio of net RFU (T=3 h) of test compound to control, 0.16 to 10 μM final; for EC50: sigmoidal dose-response, read-out: Caspase potency EC50
Experimental: Human breast cancer cell lines T-47D was grown according to media component mixtures designated by American Type Culture Collection+10% FCS (Invitrogen Corporation), in a 5% CO2-95% humidity incubator at 37° C. T-47D and ZR-75-1 cells were maintained at a cell density between 30 and 80% confluency and for HL-60 at a cell density of 0.1 to 0.6×10^6 cells/mL. Cells were harvested at 600×g and resuspended at 0.65×10^6 cells/mL into appropriate media+10% FCS. An aliquot of 45 μL of cells was added to a well of a 96-well microtiter plate containing 5 μL of a 10% DMSO in RPMI-1640 media solution containing 1.6 to 100 μM of N-(2-methylphenyl)-9-oxo-9H-fluorene-1-carboxamide or other test compound (0.16 to 10 μM final). An aliquot of 45 μL of cells was added to a well of a 96-well microtiter plate containing 5 μL of a 10% DMSO in RPMI-1640 media solution without test compound as the control sample. The samples were mixed by agitation and then incubated at 37° C. for 24 h in a 5% CO2-95% humidity incubator. After incubation, the samples were removed from the incubator and 50 μL of a solution containing 20 μM of N—(Ac-DEVD)-N′-ethoxycarbonyl-R110 fluorogenic substrate (SEQ ID NO:1) (Cytovia, Inc.; U.S. Pat. No. 6,335,429), 20% sucrose (Sigma), 20 mM DTT (Sigma), 200 mM NaCl (Sigma), 40 mM Na PIPES buffer pH 7.2 (Sigma), and 500 μg/mL lysolecithin (Calbiochem) was added. The samples were mixed by agitation and incubated at room temperature. Using a fluorescent plate reader (Model 1420 Wallac Instruments), an initial reading (T=0) was made about 1-2 min after addition of the substrate solution, employing excitation at 485 nm and emission at 530 nm, to determine the background fluorescence of the control sample. After about 3 h of incubation, the samples were read for fluorescence as above (T=3 h).
The Relative Fluorescence Unit values (RFU) were used to calculate the sample readings as follows: RFU(T=3h)−Control RFU(T=0)=Net RFU(T=3h)
The activity of caspase cascade activation was determined by the ratio of the net RFU value for N-(2-methylphenyl)-9-oxo-9H-fluorene-1-carboxamide and other test compounds to that of control samples. The EC50 (nM) was determined by a sigmoidal dose-response calculation (Prism 2.0, GraphPad Software Inc.).

[2] = system: T-47D; assay: Inhibition of cell proliferation (GI50), CellTiter 96 AQueous One, T-47D cells; type: cell-based; details: Homo sapiens, T47D, 48 h incubation, read-out: GI50 (dose for 50% inhibition of cell proliferation)
Experimental: (§1) T-47D and MX1 cells were grown and harvested as in Example 39. An aliquot of 90 μL of cells (2.2×10^4 cells/mL) was added to a well of a 96-well microtiter plate containing 10 μl of a 10% DMSO in RPMI-1640 media solution containing 1 nM to 100 μM of N-(2-methylphenyl)-9-oxo-9H-fluorene-1-carboxamide (0.1 nM to 10 μM final) or other test compound. An aliquot of 90 μL of cells was added to a well of a 96-well microtiter plate containing 10 μL of a 10% DMSO in RPMI-1640 media solution without compound as the control sample for maximal cell proliferation (AMax). The samples were mixed by agitation and then incubated at 37° C. for 48 h in a 5% CO2-95% humidity incubator. After incubation, the samples were removed from the incubator and 20 μL of CellTiter 96 AQUEOUS One Solution Cell Proliferation™ reagent (Promega) was added. The samples were mixed by agitation and incubated at 37° C. for 2-4 h in a 5% CO2-95% humidity incubator. Using an absorbance plate reader (Model 1420 Wallac Instruments), an initial reading (T=0) was made about 1-2 min after addition of the solution, employing absorbance at 490 nm. This determines the possible background absorbance of the test compounds. No absorbance for N-(2-methylphenyl)-9-oxo-9H-fluorene-1-carboxamide was found at 490 nm. After the 2-4 h incubation, the samples were read for absorbance as above (ATest).
(§2) Baseline for GI50 (dose for 50% inhibition of cell proliferation) of initial cell numbers were determined by adding an aliquot of 90 μL of cells or 90 μL of media, respectively, to wells of a 96-well microtiter plate containing 10 μL of a 10% DMSO in RPMI-1640 media solution. The samples were mixed by agitation and then incubated at 37° C. for 0.5 h in a 5% CO2-95% humidity incubator. After incubation, the samples were removed from the incubator and 20 μL of CellTiter 96 AQUEOUS One Solution Cell Proliferation™ reagent (Promega) was added. The samples were mixed by agitation and incubated at 37° C. for 2-4 h in a 5% CO2-95% humidity incubator. Absorbance was read as above, (AStart) defining absorbance for initial cell number used as baseline in GI50 determinations.
(§3) GI50 (dose for 50% inhibition of cell proliferation) is the concentration where [(ATest−Astart)/(AMax−Astart)]=0.5.

[3] = system: MX1; assay: Inhibition of cell proliferation (GI50), CellTiter 96 AQueous One, MX1 cells; type: cell-based; details: Homo sapiens, 48 h incubation, read-out: GI50 (dose for 50% inhibition of cell proliferation)
Experimental: as §1, §2, §3

| Structure (SMILES) | Caspase activity (Ratio) [1] | EC50 ([1]; Homo sapiens, T47D, 24 h) [nM] | GI50 [2] [nM] | GI50 [3] [nM] | melting point [°C] | EC50 [1] [nM] |
| --- | --- | --- | --- | --- | --- | --- |
| O=C(Nc1ccccc1-n1cccn1)c1cccc2c1C(=O)c1ccccc1-2 [Example 9, N-(2-(1H-Pyrazol-1-yl)-phenyl)-9-oxo-9H-fluorene-1-carboxamide] | 7.7 | 979 | 451 | 1000 |  |  |
| CN(C)c1ccccc1NC(=O)c1cccc2c1C(=O)c1ccccc1-2 [Example 10, N-(2-Dimethylaminophenyl)-9-oxo-9H-fluorene-1-carboxamide] | 8.0 | 1540 | 665 | 736 | 152 to 153 |  |
| O=C(Nc1ccccc1-n1cccn1)c1cccc2c1Cc1ccccc1-2 [Example 12, N-(2-(1H-Pyrazol-1-yl)-phenyl)-9H-fluorene-1-carboxamide] | 8.9 | 1580 |  |  | 179 to 180 |  |
| Cc1ccccc1NC(=O)c1cccc2c1Cc1ccccc1-2 [Example 13, N-(2-Methylphenyl)-9H-fluorene-1-carboxamide] | 6.0 | 1100 | 5040 | 6000 |  |  |
| COc1ccccc1NC(=O)c1cccc2c1C(=O)c1ccccc1-2 [Example 15, N-(2-Methoxyphenyl)-9-oxo-9H-fluorene-1-carboxamide] | 6.6 | 577 | 600 | 2000 |  |  |
| CN(C)Cc1ccccc1NC(=O)c1cccc2c1C(=O)c1ccccc1-2 [Example 20, N-(2-Dimethylaminomethylphenyl)-9-oxo-9H-fluorene-1-carboxamide] | 6.7 |  | 233 | 8000 |  | 697 |
| [N-]=[N+]=Nc1ccccc1NC(=O)c1cccc2c1C(=O)c1ccccc1-2 [Example 27, N-(2-Azido-phenyl)-9-oxo-9H-fluorene-1-carboxamide] | 4.0 | 1400 | 45 | 90 |  |  |
| CN(C(=O)c1cccc2c1C(=O)c1ccccc1-2)c1ccccc1-n1cccn1 [Example 28, N-Methyl-N-(2-(1H-pyrazol-1-yl)phenyl)-9-oxo-9H-fluorene-1-carboxamide] | 1.2 | > 10000 | > 10000 | > 10000 |  |  |
| O=C(Nc1ccccc1-n1cccn1)c1cccc2c1C(=O)c1cc([N+](=O)[O-])ccc1-2 [Example 29, 7-Nitro-N-(2-(1H-pyrazol-1-yl)phenyl)-9-oxo-9H-fluorene-1-carboxamide] | 5.3 | 231 | 166 | 150 |  |  |
| O=C(Nc1ccccc1-n1cccn1)c1cccc2sc3ccccc3c12 [Example 32, N-(2-(1H-Pyrazol-1-yl)phenyl)-dibenzothiophene-1-carboxamide] | 2.7 | 1280 | 2470 | 4350 |  |  |
| [N-]=[N+]=Nc1ccc2c(c1)C(=O)c1c(C(=O)Nc3ccccc3-n3cccn3)cccc1-2 [Example 37, 7-Azido-N-(2-(1H-pyrazol-1-yl)phenyl)-9-oxo-9H-fluorene-1-carboxamide] | 3.0 | 681 | 415 | 200 |  |  |
| O=C(Nc1ccccc1-n1cc(Br)cn1)c1cccc2c1C(=O)c1cc([N+](=O)[O-])ccc1-2 [Example 38, N-(2-(4-Bromo-1H-pyrazol-1-yl)phenyl)-7-nitro-9-oxo-9H-fluorene-1-carboxamide] | 8.0 | 302 | 429 | 315 |  |  |
| Cc1ccccc1NC(=O)c1cccc2c1C(=O)c1ccccc1-2 [Example A, N-(2-Methylphenyl)-9-oxo-9H-fluorene-1-carboxamide] | 11.2 | 570 | 146 | 549 |  |  |
| COc1ccc(NC(=O)c2cccc3c2C(=O)c2ccccc2-3)cc1 [N-(4-Methoxyphenyl)-9-oxo-9H-fluorene-1-carboxamide] | 1.8 | > 10000 |  |  |  |  |
| Cc1ccc(NC(=O)c2cccc3c2C(=O)c2ccccc2-3)cc1 [N-(4-Methylphenyl)-9-oxo-9H-fluorene-1-carboxamide] | 1.4 | > 10000 |  |  |  |  |
